From ChEMBL document CHEMBL3885881, “DrugMatrix”

Organism: Rattus norvegicus
Assay: DrugMatrix - Regimen: Daily Repeat
Assay type: toxicity, organism-based, Sprague-Dawley
Set-up: regimen Daily Repeat, gender Male, age 6-8 weeks
Conditions: in vivo, po, route oral GAVAGE, vehicle 100 % WATER; for ABSOLUTE BASOPHIL / ABSOLUTE EOSINOPHIL / ABSOLUTE LYMPHOCYTE / ABSOLUTE MONOCYTE / ABSOLUTE SEGMENTED NEUTROPHIL / BASOPHIL / EOSINOPHIL / ERYTHROCYTE COUNT / HEMATOCRIT / HEMOGLOBIN / LEUKOCYTE COUNT / LYMPHOCYTE / MEAN CORPUSCULAR HEMOGLOBIN / MEAN CORPUSCULAR HEMOGLOBIN CONCENTRATION / MEAN CORPUSCULAR VOLUME / MONOCYTE / NEUTROPHIL / NUCLEATED RED BLOOD CELLS / PLATELET COUNT: tissue Blood; for ALANINE AMINOTRANSFERASE / ALBUMIN / ALKALINE PHOSPHATASE / ASPARTATE AMINOTRANSFERASE / BLOOD UREA NITROGEN / CARBON DIOXIDE / CHLORIDE / CHOLESTEROL / CREATINE PHOSPHOKINASE / CREATININE / GLUCOSE / LACTATE DEHYDROGENASE / LIPASE / PHOSPHORUS / POTASSIUM / SODIUM / TOTAL BILIRUBIN / TOTAL PROTEIN / URIC ACID: tissue Plasma
[1] = 60 mg/kg, 120 h, dose level Low, time 5 day
[2] = 1300 mg/kg, 72 h, dose level High, time 3 day
[3] = 1300 mg/kg, 120 h, dose level High, time 5 day

## CC(C)C[C@H](NC(=O)[C@@H](O)[C@H](N)Cc1ccccc1)C(=O)O [UBENIMEX]
[1]
  ABSOLUTE BASOPHIL: 0 CELLS/uL
  ABSOLUTE EOSINOPHIL: 0 CELLS/uL
  ABSOLUTE LYMPHOCYTE: 15131 CELLS/uL
  ABSOLUTE MONOCYTE: 122 CELLS/uL
  ABSOLUTE SEGMENTED NEUTROPHIL: 847 CELLS/uL
  BASOPHIL: 0%
  EOSINOPHIL: 0%
  ERYTHROCYTE COUNT: 5.87 x10E6/uL
  HEMATOCRIT: 36.17%
  HEMOGLOBIN: 14.03 G/DL
  LEUKOCYTE COUNT: 16.1 x10E3/uL
  LYMPHOCYTE: 94.33%
  MEAN CORPUSCULAR HEMOGLOBIN: 23.9 pg
  MEAN CORPUSCULAR HEMOGLOBIN CONCENTRATION: 38.77 G/DL
  MEAN CORPUSCULAR VOLUME: 61.53 fL
  MONOCYTE: 0.67%
  NEUTROPHIL: 5%
  NUCLEATED RED BLOOD CELLS: 0 /100WBC
  PLATELET COUNT: 1187.67 x10E3/uL
  ALANINE AMINOTRANSFERASE: 53.33 u/L
  ALBUMIN: 4.3 G/DL
  ALKALINE PHOSPHATASE: 289.33 u/L
  ASPARTATE AMINOTRANSFERASE: 93.33 u/L
  BLOOD UREA NITROGEN: 16.33 mg/dL
  CARBON DIOXIDE: 23.67 mmol/L
  CHLORIDE: 105 MEQ/L
  CHOLESTEROL: 62.33 mg/dL
  CREATINE PHOSPHOKINASE: 463.33 u/L
  CREATININE: 0.26 mg/dL
  GLUCOSE: 146.33 mg/dL
  LACTATE DEHYDROGENASE: 498.67 u/L
  LIPASE: 9 u/L
  PHOSPHORUS: 11.2 mg/dL
  POTASSIUM: 5.71 MEQ/L
  SODIUM: 144.27 MEQ/L
  TOTAL BILIRUBIN: 0.13 mg/dL
  TOTAL PROTEIN: 6.1 G/DL
  URIC ACID: 1.37 mg/dL
[2]
  ABSOLUTE BASOPHIL: 0 CELLS/uL
  ABSOLUTE EOSINOPHIL: 88 CELLS/uL
  ABSOLUTE LYMPHOCYTE: 12244.33 CELLS/uL
  ABSOLUTE MONOCYTE: 144 CELLS/uL
  ABSOLUTE SEGMENTED NEUTROPHIL: 1690.33 CELLS/uL
  BASOPHIL: 0%
  EOSINOPHIL: 0.67%
  ERYTHROCYTE COUNT: 5.72 x10E6/uL
  HEMATOCRIT: 34.83%
  HEMOGLOBIN: 14.07 G/DL
  LEUKOCYTE COUNT: 14.17 x10E3/uL
  LYMPHOCYTE: 86.33%
  MEAN CORPUSCULAR HEMOGLOBIN: 24.63 pg
  MEAN CORPUSCULAR HEMOGLOBIN CONCENTRATION: 40.37 G/DL
  MEAN CORPUSCULAR VOLUME: 60.93 fL
  MONOCYTE: 1%
  NEUTROPHIL: 12%
  NUCLEATED RED BLOOD CELLS: 0 /100WBC
  PLATELET COUNT: 1238.33 x10E3/uL
  ALANINE AMINOTRANSFERASE: 54.33 u/L
  ALBUMIN: 4 G/DL
  ALKALINE PHOSPHATASE: 304.33 u/L
  ASPARTATE AMINOTRANSFERASE: 87 u/L
  BLOOD UREA NITROGEN: 14 mg/dL
  CARBON DIOXIDE: 23.67 mmol/L
  CHLORIDE: 102.33 MEQ/L
  CHOLESTEROL: 63.33 mg/dL
  CREATINE PHOSPHOKINASE: 350.33 u/L
  CREATININE: 0.18 mg/dL
  GLUCOSE: 197.67 mg/dL
  LACTATE DEHYDROGENASE: 237.33 u/L
  LIPASE: 9 u/L
  PHOSPHORUS: 10.53 mg/dL
  POTASSIUM: 5.18 MEQ/L
  SODIUM: 142.5 MEQ/L
  TOTAL BILIRUBIN: 0.17 mg/dL
  TOTAL PROTEIN: 5.7 G/DL
  URIC ACID: 1.27 mg/dL
[3]
  ABSOLUTE BASOPHIL: 0 CELLS/uL
  ABSOLUTE EOSINOPHIL: 28.67 CELLS/uL
  ABSOLUTE LYMPHOCYTE: 12669 CELLS/uL
  ABSOLUTE MONOCYTE: 277.67 CELLS/uL
  ABSOLUTE SEGMENTED NEUTROPHIL: 1191.33 CELLS/uL
  BASOPHIL: 0%
  EOSINOPHIL: 0.33%
  ERYTHROCYTE COUNT: 5.82 x10E6/uL
  HEMATOCRIT: 35.73%
  HEMOGLOBIN: 14.33 G/DL
  LEUKOCYTE COUNT: 14.17 x10E3/uL
  LYMPHOCYTE: 89.67%
  MEAN CORPUSCULAR HEMOGLOBIN: 24.6 pg
  MEAN CORPUSCULAR HEMOGLOBIN CONCENTRATION: 40.17 G/DL
  MEAN CORPUSCULAR VOLUME: 61.37 fL
  MONOCYTE: 2%
  NEUTROPHIL: 8%
  NUCLEATED RED BLOOD CELLS: 0 /100WBC
  PLATELET COUNT: 1144.33 x10E3/uL
  ALANINE AMINOTRANSFERASE: 48.33 u/L
  ALBUMIN: 4.23 G/DL
  ALKALINE PHOSPHATASE: 308.67 u/L
  ASPARTATE AMINOTRANSFERASE: 76.67 u/L
  BLOOD UREA NITROGEN: 16.67 mg/dL
  CARBON DIOXIDE: 25.67 mmol/L
  CHLORIDE: 108.67 MEQ/L
  CHOLESTEROL: 58.33 mg/dL
  CREATINE PHOSPHOKINASE: 244.67 u/L
  CREATININE: 0.23 mg/dL
  GLUCOSE: 155.67 mg/dL
  LACTATE DEHYDROGENASE: 228.67 u/L
  LIPASE: 10 u/L
  PHOSPHORUS: 9.27 mg/dL
  POTASSIUM: 6.1 MEQ/L
  SODIUM: 150.27 MEQ/L
  TOTAL BILIRUBIN: 0.2 mg/dL
  TOTAL PROTEIN: 6.03 G/DL
  URIC ACID: 1.53 mg/dL
